Biological target: CFTR (Homo sapiens, UniProt P13569)
Assay: standard Ussing Chamber Assay for CFTR potentiator activity
Format: cell-based

CFTR, sequence (P13569 whole entry): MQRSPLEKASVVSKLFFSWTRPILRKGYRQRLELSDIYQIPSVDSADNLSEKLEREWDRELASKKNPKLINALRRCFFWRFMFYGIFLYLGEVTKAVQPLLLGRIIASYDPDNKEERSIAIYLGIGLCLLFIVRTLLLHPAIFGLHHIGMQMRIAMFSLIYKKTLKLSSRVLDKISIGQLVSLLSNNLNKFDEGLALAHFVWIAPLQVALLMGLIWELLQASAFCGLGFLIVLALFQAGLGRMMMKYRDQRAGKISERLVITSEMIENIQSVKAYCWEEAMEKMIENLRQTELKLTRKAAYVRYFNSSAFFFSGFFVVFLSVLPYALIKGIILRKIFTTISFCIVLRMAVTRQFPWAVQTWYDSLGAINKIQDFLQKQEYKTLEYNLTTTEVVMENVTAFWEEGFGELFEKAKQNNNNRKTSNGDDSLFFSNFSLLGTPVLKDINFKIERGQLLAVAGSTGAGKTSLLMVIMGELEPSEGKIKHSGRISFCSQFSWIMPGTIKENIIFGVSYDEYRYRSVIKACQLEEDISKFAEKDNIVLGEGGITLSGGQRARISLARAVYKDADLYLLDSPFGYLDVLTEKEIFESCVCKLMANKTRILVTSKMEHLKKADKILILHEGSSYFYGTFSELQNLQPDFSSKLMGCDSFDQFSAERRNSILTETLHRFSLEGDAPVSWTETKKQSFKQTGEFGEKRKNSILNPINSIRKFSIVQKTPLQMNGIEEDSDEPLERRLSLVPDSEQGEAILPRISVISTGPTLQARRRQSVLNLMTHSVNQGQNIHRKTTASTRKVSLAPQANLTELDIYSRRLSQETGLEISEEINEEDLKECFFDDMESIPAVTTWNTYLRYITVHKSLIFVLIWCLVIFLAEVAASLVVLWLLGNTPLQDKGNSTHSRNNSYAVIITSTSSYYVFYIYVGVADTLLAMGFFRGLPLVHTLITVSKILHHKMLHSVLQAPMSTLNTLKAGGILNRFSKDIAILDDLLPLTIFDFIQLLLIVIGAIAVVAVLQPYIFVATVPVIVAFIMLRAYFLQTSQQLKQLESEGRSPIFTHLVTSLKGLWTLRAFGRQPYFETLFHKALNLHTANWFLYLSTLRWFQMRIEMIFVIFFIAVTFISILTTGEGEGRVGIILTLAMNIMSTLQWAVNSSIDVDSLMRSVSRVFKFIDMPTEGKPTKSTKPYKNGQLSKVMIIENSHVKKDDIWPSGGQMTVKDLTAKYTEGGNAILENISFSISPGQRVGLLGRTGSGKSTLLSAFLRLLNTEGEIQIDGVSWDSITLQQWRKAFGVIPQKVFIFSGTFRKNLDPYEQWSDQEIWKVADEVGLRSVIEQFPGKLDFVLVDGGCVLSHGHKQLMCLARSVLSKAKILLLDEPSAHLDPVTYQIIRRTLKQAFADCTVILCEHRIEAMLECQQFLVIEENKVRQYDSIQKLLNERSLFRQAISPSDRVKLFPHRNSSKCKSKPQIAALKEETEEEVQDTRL

C[C@@H]1CCCCC[C@](O)(C(F)(F)F)C2=NN=C(O2)c2nc(c(C(F)(F)F)cc2N)O1 [(6R,12R)-17-amino-12-methyl-6,15-bis(trifluoromethyl)-13,19-dioxa-3,4,18-triazatricyclo[12.3.1.12,5]nonadeca-1(18),2,4,14,16-pentaen-6-ol]
CFTR modulatory activity: confirmed

Source: patent US20230373935A1, “MODULATORS OF CYSTIC FIBROSIS TRANSMEMBRANE CONDUCTANCE REGULATOR” (VERTEX PHARMACEUTICALS INCORPORATED, priority 2020, published 2023)
